Results taken from patent US4868207A, “Bis (methylenedioxy) biphenyl compounds useful for the treatment of liver diseases” (priority 1988, dated 1989).
Entries after “also recorded” stand apart in the source; their conditions may differ.

Legend:
Type in all cases: in vivo
[1] = test system: thioacetamide-intoxicated mice; assay: Effect on SGPT, SGOT and liver triglyceride levels in thioacetamide-intoxicated mice; conditions: for Liver triglyceride / SGOT / SGPT: oral; for Liver triglyceride: control 104 ± 35; for SGOT / SGPT: ± SD; for SGOT: control 1174 ± 435, Compound 1 P < 0.001; for SGPT: control 2365 ± 1045, Compound 1 P < 0.05
Excerpt: (§1) Throughout the following experiments, male mice weighing 18-22 g were used, and unless otherwise indicated, the compound of the present invention [6-methoxycarbonyl-6'-hydroxymethyl-2,3,2',3'-bis(methylenedioxy)-4,4'-dimethoxybiphenyl (hereinafter referred to as "Compound 1")]]and DDB of a comparative drug are each suspended in 2% of Tween-80 before administered orally.
(§2) Each group consisted of nine mice. The treated groups of mice were given three doses of Compound 1 twice at an interval of 8 hours on the first day, while one group was given corresponding volume of 2% of Tween-80 as control. At 4 p.m. of the second day, all mice were given i.p. 10 ml/kg of 0.1% of carbon tetrachloride in peanut oil. After a 16 hour fasting, all mice were sacrificed by decapitation. Serum transaminase (SGPT, SGOT) levels were determined.
(D) Effect on SGPT, SGOT and liver triglyceride levels in thioacetamide-intoxicated mice (9 mice per group)
Each group consisted of nine mice. The procedure of this experiment was just the same as mentioned in carbon tetrachloride-hepatotoxicity test. Only 50 mg/kg of thioacetamide was instread of carbon tetrachloride.

[2] = test system: acetaminophen-intoxicated mice; assay: Effect on SGPT, SGOT and liver triglyceride levels in acetaminophen-intoxicated mice; conditions: for Liver triglyceride / SGPT / SGOT: oral; for Liver triglyceride: control 57.4 ± 18.3; for SGPT / SGOT: ± SD; for SGPT: control 1504 ± 330; for SGOT: control 1695 ± 390
Excerpt: as §1
(B) Effect on SGPT, SGOT and liver triglyceride levels in acetaminophen-intoxicated mice
Thirty six mice were divided equally into 4 groups. On the first day, one group was given 2% of Tween-80 as control, while other groups were each given two doses of Compound 1 at an interval of 8 hours. All mice were injected i.p. 110 mg/kg of acetaminophen 16 hours after the last administration of Compound 1. After fasting overnight, all mice were decapited. SGPT, SGOT and liver triglyceride levels were determined.

drug metabolism enzyme = assay: Effect on pentobarbital sleeping time in mice; conditions: for Sleeping time: 200 mg/kg oral, ± SD, control 49 ± 22
Procedure: (E) Effect on pentobarbital sleeping time in mice (10 mice per group)
Three groups of 10 mice were used in this experiment. […] The mice of control were given physiological saline. The interval between the lose and return of righting reflex of each mouse was recorded as sleeping time.

[3] = test system: carbon tetrachloride-intoxicated mice; assay: Effect on SGPT and SGOT levels in carbon tetrachloride-intoxicated mice; conditions: for SGOT / SGPT: oral, ± SD; for SGOT: control 2087 ± 131; for SGPT: control 3110 ± 50
Excerpt: as §1
Effect on SGPT and SGOT levels in carbon tetrachloride-intoxicated mice (9 mice per group)
as §2

[4] = test system: mortality induced by acetaminophen in mice; assay: Effect on mortality induced by acetaminophen in mice; conditions: 200 mg/kg
Excerpt: as §1
(C) Effect on mortality induced by acetaminophen in mice (14 mice per group)
Each group consisted of 14 mice. The procedure of the treatment was the same as mentioned in the item (B). All mice were given i.p. 400 mg/kg of acetaminophen 24 hours after the second dose of Compound 1. Survival numbers of mice were recorded within 5 days.

male kunming strain mice = assay: Acute toxicity; conditions: 3 g/20 ml/kg and 6 g/20 ml/kg, oral
Procedure: Ten male kunming strain mice weighing 18-20 g were used, and starved overnight. Compound 1 was suspened in 0.2% CMC-Na, and 5 mice were given orally compound 1 in a dose of 3 g/20 ml/kg. The other 5 mice were given 6 g/20 ml/kg.

[5] = 200 mg/kg (DDB 200 mg/mg [sic])
[6] = 200 mg/kg (DDB 200 mg/mg [sic]), Compound 1 P < 0.001
[7] = 200 mg/kg (DDB 200 mg/mg [sic]), DDB P < 0.05, Compound 1 P < 0.001
[8] = 1 hr before pentobarbital 50 mg/kg i.p., P DDB <0.05, Compound 1 <0.001
[9] = 24 hrs before pentobarbital 50 mg/kg i.p., P DDB <0.01, Compound 1 <0.001
[10] = 200 mg/kg, DDB P < 0.05, Compound 1 P < 0.001

**Q.** For `COC(=O)c1cc(OC)c2c(c1-c1c(C(=O)OC)cc(OC)c3c1OCO3)OCO2` [DDB, dimethyl 4,4'-dimethoxy-5,6,5',6'-dimethylenedioxybiphenyl-2,2'-dicarboxylate, reference compound], which “Liver triglyceride” value ([1]; 200 mg/kg) is on record?
**A.** 135 ± 46 mg/kg

**Q.** And the SGOT ([1]; 200 mg/kg)?
**A.** 1217 ± 261 u/dl

**Q.** And the SGPT ([1]; 200 mg/kg)?
**A.** 2035 ± 770 u/dl

**Q.** And the Liver triglyceride [2, 5]?
**A.** 56.2 ± 27.6 mg/kg

**Q.** What about the SGPT [2, 6] of the same compound?
**A.** 1100 ± 660 u/dl

**Q.** What about the SGOT [2, 7] of the same compound?
**A.** 1130 ± 651 u/dl

**Q.** And the Sleeping time (drug metabolism enzyme; [8])?
**A.** 91 ± 57 min

**Q.** And the Sleeping time (drug metabolism enzyme; [9])?
**A.** 23 ± 10 min

**Q.** What about the SGOT ([3]; 50 mg/kg, 9 mice per group) of the same compound?
**A.** 1922 ± 174 u/dl

**Q.** And the SGPT ([3]; 50 mg/kg, 9 mice per group)?
**A.** 2701 ± 243 u/dl

**Q.** What about the SGOT ([3]; 100 mg/kg) of the same compound?
**A.** 2019 ± 130 u/dl

**Q.** And the SGPT ([3]; 100 mg/kg, Compound 1 P < 0.01)?
**A.** 2965 ± 221 u/dl

**Q.** And the SGOT ([3]; 200 mg/kg, Compound 1 P < 0.01)?
**A.** 1700 ± 185 u/dl

**Q.** What about the SGPT [3, 10] of the same compound?
**A.** 2303 ± 318 u/dl

**Q.** Which Number of survival ([4]; 400 mg/kg acetaminophen i.p., of 14 mice, within 5 days, control 3) does the source give for `COC(=O)c1cc(OC)c2c(c1-c1c(CO)cc(OC)c3c1OCO3)OCO2` [Compound 1, 6-methoxycarbonyl-6'-hydroxymethyl-2,3,2',3'-bis(methylenedioxy)-4,4'-dimethoxybiphenyl] here?
**A.** 11

**Q.** What about the Mortality ([4]; 400 mg/kg acetaminophen i.p., within 5 days, control 78) of the same compound?
**A.** 21%

**Q.** And the “mortality of mice induced by acetaminophen” value ([4]; result in words)?
**A.** significantly decreased

**Q.** And the “Liver triglyceride” value ([1]; 200 mg/kg)?
**A.** 115 ± 31 mg/kg

**Q.** And the SGOT ([1]; 200 mg/kg)?
**A.** 565 ± 130 u/dl

**Q.** And the SGPT ([1]; 200 mg/kg)?
**A.** 1430 ± 550 u/dl

**Q.** What about the “lowering SGPT and SGOT levels elevated by thioacetamide” value ([1]; 200 mg/kg, result in words) of the same compound?
**A.** effective in lowering SGPT and SGOT levels

**Q.** What about the “protective effect against hepatotoxicity induced by thioacetamide” value ([1]; result in words) of the same compound?
**A.** protective effect against hepatotoxicity

**Q.** And the Liver triglyceride ([2]; 100 mg/kg)?
**A.** 52.0 ± 13.8 mg/kg

**Q.** And the SGPT ([2]; 100 mg/kg, P < 0.05)?
**A.** 935 ± 660 u/dl

**Q.** What about the SGOT ([2]; 100 mg/kg, P < 0.05) of the same compound?
**A.** 1000 ± 651 u/dl

**Q.** What about the Liver triglyceride [2, 5] of the same compound?
**A.** 50.0 ± 27.6 mg/kg

**Q.** What about the SGPT [2, 6] of the same compound?
**A.** 550 ± 495 u/dl

**Q.** What about the SGOT [2, 7] of the same compound?
**A.** 565 ± 522 u/dl

**Q.** And the “lowering SGPT and SGOT levels elevated by acetaminophen” value ([2]; 200 mg/kg, 100 mg/kg, result in words)?
**A.** effective in lowering SGPT and SGOT levels

**Q.** What about the “liver lesions such as inflammation and necrosis” value ([2]; result in words) of the same compound?
**A.** ameliorated

**Q.** What about the “liver triglyceride level elevated by acetaminophen” value ([2]; result in words) of the same compound?
**A.** reduced

**Q.** And the “protective effect against hepatotoxicity induced by acetaminophen” value ([2]; result in words)?
**A.** protective effect against hepatotoxicity

**Q.** And the death (male kunming strain mice; within 2 weeks)?
**A.** no death occured

**Q.** And the “change of the behavior of the mice” value (male kunming strain mice; within 48 hours)?
**A.** No noticeable change of the behavior of the mice

**Q.** And the Sleeping time (drug metabolism enzyme; [8])?
**A.** 214 ± 85 min

**Q.** What about the Sleeping time (drug metabolism enzyme; [9]) of the same compound?
**A.** 20 ± 8 min

**Q.** What about the pentobarbital sleeping time (drug metabolism enzyme; 200 mg/kg, one hour before pentobarbital, result in words) of the same compound?
**A.** significantly prolonged

**Q.** And the pentobarbital sleeping time (drug metabolism enzyme; 24 hours prior to pentobarbital, result in words)?
**A.** markedly shortened

**Q.** What about the “action on drug metabolism enzyme” value (drug metabolism enzyme; indirectly indicated by sleeping time, result in words) of the same compound?
**A.** inductive action on drug metabolism enzyme; also recorded: increases the activity of drug metabolism enzymes

**Q.** And the SGOT ([3]; 50 mg/kg, 9 mice per group)?
**A.** 1826 ± 203 u/dl

**Q.** And the SGPT ([3]; 50 mg/kg, 9 mice per group)?
**A.** 2523 ± 273 u/dl

**Q.** And the SGOT ([3]; 100 mg/kg)?
**A.** 1739 ± 192 u/dl

**Q.** And the SGPT ([3]; 100 mg/kg, Compound 1 P < 0.01)?
**A.** 2126 ± 371 u/dl

**Q.** What about the SGPT level ([3]; 100 mg/kg, result in words) of the same compound?
**A.** markedly decreased

**Q.** And the SGOT ([3]; 200 mg/kg, Compound 1 P < 0.01)?
**A.** 1362 ± 148 u/dl

**Q.** What about the SGPT [3, 10] of the same compound?
**A.** 947 ± 236 u/dl

**Q.** What about the “SGOT level vs carbon tetrachloride control” value ([3]; 200 mg/kg, result in words) of the same compound?
**A.** significantly lowered

**Q.** And the “SGPT level vs carbon tetrachloride control” value ([3]; 200 mg/kg, result in words)?
**A.** significantly lowered

**Q.** And the “protection against carbon tetrachloride hepatotoxicity” value ([3]; result in words)?
**A.** protective effect against hepatotoxicity; also recorded: effective in protection against carbon tetrachloride hepatotoxicity
